Source: patent US9650395B2, “Antibacterial compounds and methods for use” (PTC Therapeutics, Inc., priority 2011, dated 2017)
Values after ≈ are worked out from the molar mass of the structure shown. Read-outs that look alike come from different tables or passages of the source.

Columns and labels:
[1] = system: super sensitive Gram-negative Escherichia coli (E. coli) BAS849; test: Antibacterial activity, microbroth dilution MIC, E. coli BAS849; format: cell-based; conditions: Escherichia coli, read-out: MIC, BAS849
[2] = system: control Gram-negative E. coli 25922 strain; test: Antibacterial activity, microbroth dilution MIC, E. coli 25922; format: cell-based, Escherichia coli; conditions: Escherichia coli; E. coli 25922, microbroth dilution; read-out: MIC, 25922
[3] = system: Gram-positive Staphylococcus aureus (S. aureus) 29213; test: Antibacterial activity, microbroth dilution MIC, S. aureus 29213; format: cell-based; conditions: Staphylococcus aureus; S. aureus 29213, microbroth dilution; read-out: MIC, 29213
[4] = system: quinolone resistant E. coli LZ3111; test: Antibacterial activity, MIC, quinolone resistant E. coli LZ3111; format: cell-based, Escherichia coli; conditions: Escherichia coli, read-out: MIC, LZ3111
Excerpt: (§1) The antibacterial activity from a microbroth dilution method may be presented as the minimum inhibitory concentration (MIC in […]). The MIC value is the lowest concentration of a drug which prevents macroscopically visible bacterial growth under test conditions.
Mutations in these regions are known to confer a high level resistance to the quinolone class of antibiotics.

[5] = system: E. coli ELZ4000 (MDR clinical isolate); test: Antibacterial activity, MIC, MDR E. coli ELZ4000; format: cell-based, Escherichia coli; conditions: Escherichia coli; E. coli ELZ4000, MDR clinical isolate; read-out: MIC ELZ4000
[6] = system: E. coli ELZ4251 (MDR clinical isolate); test: Antibacterial activity, MIC, MDR E. coli ELZ4251; format: cell-based, Escherichia coli; conditions: Escherichia coli, E. coli ELZ4251, MDR clinical isolate; read-out: MIC ELZ4251
[7] = system: Pseudomonas aeruginosa (P. aeruginosa) 27853; test: Antibacterial activity, MIC, P. aeruginosa 27853; format: cell-based; conditions: Pseudomonas aeruginosa, P. aeruginosa 27853; read-out: MIC 27853
Excerpt: as §1
Antibacterial activity of test compounds against the Gram-negative bacterium Pseudomonas aeruginosa (P. aeruginosa) 27853 is shown in Table 5.

[8] = E. coli BAS849, microbroth dilution

## CCc1cc(C(=O)O)c(=O)[nH]c1-c1ccc(N(C)c2ccccc2)cc1 [Cpd 158, 5-ethyl-6-{4-[methyl(phenyl)amino]phenyl}-2-oxo-1,2-dihydropyridine-3-carboxylic acid]
[1]; [8]
  MIC: < 1 µg/mL
[2]
  MIC: 3.5 to 12.5 µg/mL (≈ 10 to 35.9 µM)
[3]
  MIC: 3.5 to 12.5 µg/mL (≈ 10 to 35.9 µM)
[4]
  MIC: 12.5 to 150 µg/mL (≈ 35.9 to 431 µM)
[5]
  MIC: 12.5 to 150 µg/mL (≈ 35.9 to 431 µM)
[6]
  MIC: 12.5 to 150 µg/mL (≈ 35.9 to 431 µM)
[7]
  MIC: 12.5 to 150 µg/mL (≈ 35.9 to 431 µM)

## CCc1c(-c2ccc(N3CC(N)C4(CC4)C3)cc2)[nH]c(=O)c(C(=O)O)c1O.O=C(O)C(F)(F)F (stereo not shown) [Cpd 252, 6-[4-(7-amino-5-azaspiro[2.4]hept-5-yl)phenyl]-5-ethyl-4-hydroxy-2-oxo-1,2-dihydropyridine-3-carboxylic acid trifluoroacetate]
[1]
  MIC: < 1 µg/mL
[2]
  MIC: 1 to 3.5 µg/mL
[3]
  MIC: 12.5 to 150 µg/mL
[4]
  MIC: 3.5 to 12.5 µg/mL
[5]
  MIC: 12.5 to 150 µg/mL
[6]
  MIC: 12.5 to 150 µg/mL
[7]
  MIC: 12.5 to 150 µg/mL

## CCc1cc(C(=O)O)c(=O)[nH]c1-c1ccc(OC)cc1 [Cpd 24, 5-ethyl-6-(4-methoxyphenyl)-2-oxo-1,2-dihydropyridine-3-carboxylic acid]
[1]; [8]
  MIC: < 1 µg/mL
[2]
  MIC: 3.5 to 12.5 µg/mL (≈ 12.8 to 45.7 µM)
[3]
  MIC: 12.5 to 150 µg/mL (≈ 45.7 to 549 µM)
[4]
  MIC: 12.5 to 150 µg/mL (≈ 45.7 to 549 µM)
[5]
  MIC: 12.5 to 150 µg/mL (≈ 45.7 to 549 µM)
[6]
  MIC: 12.5 to 150 µg/mL (≈ 45.7 to 549 µM)

## O=C(O)c1cc(C2CC2)c(-c2ccc(N3CCCC3)cc2)[nH]c1=O [Cpd 164, 5-cyclopropyl-2-oxo-6-[4-(pyrrolidin-1-yl)phenyl]-1,2-dihydropyridine-3-carboxylic acid]
[1]; [8]
  MIC: < 1 µg/mL
[2]
  MIC: 1 to 3.5 µg/mL (≈ 3.08 to 10.8 µM)
[3]
  MIC: 3.5 to 12.5 µg/mL (≈ 10.8 to 38.5 µM)
[4]
  MIC: 12.5 to 150 µg/mL (≈ 38.5 to 462 µM)
[5]
  MIC: 12.5 to 150 µg/mL (≈ 38.5 to 462 µM)
[6]
  MIC: 12.5 to 150 µg/mL (≈ 38.5 to 462 µM)

## CCc1cc(C(=O)O)c(=O)[nH]c1-c1ccc(N2CCC(CN(C)Cc3ccccc3)C2)cc1.O=C(O)C(F)(F)F (stereo not shown) [Cpd 183, 6-[4-(3-{[benzyl(methyl)amino]methyl}pyrrolidin-1-yl)phenyl]-5-ethyl-2-oxo-1,2-dihydropyridine-3-carboxylic acid trifluoroacetate]
[1]
  MIC: < 1 µg/mL
[2]
  MIC: 3.5 to 12.5 µg/mL
[3]
  MIC: 12.5 to 150 µg/mL
[4]
  MIC: 12.5 to 150 µg/mL
[5]
  MIC: 12.5 to 150 µg/mL
[6]
  MIC: 12.5 to 150 µg/mL

## CC(C)c1cc(C(=O)O)c(=O)[nH]c1-c1ccc(N2CCCC2)cc1 [Cpd 163, 5-isopropyl-2-oxo-6-[4-(pyrrolidin-1-yl)phenyl]-1,2-dihydropyridine-3-carboxylic acid]
[1]; [8]
  MIC: < 1 µg/mL
[2]
  MIC: 3.5 to 12.5 µg/mL (≈ 10.7 to 38.3 µM)
[3]
  MIC: 12.5 to 150 µg/mL (≈ 38.3 to 460 µM)
[4]
  MIC: 12.5 to 150 µg/mL (≈ 38.3 to 460 µM)
[5]
  MIC: 12.5 to 150 µg/mL (≈ 38.3 to 460 µM)
[6]
  MIC: 12.5 to 150 µg/mL (≈ 38.3 to 460 µM)

## CCc1cc(C(=O)O)c(=O)[nH]c1-c1ccc(N2C[C@H]3CN(Cc4ccccc4)C[C@H]3C2)cc1.Cl [Cpd 206, 6-{4-[(3aR,6aS)-5-benzylhexahydropyrrolo[3,4-c]pyrrol-2(1H)-yl]phenyl}-5-ethyl-2-oxo-1,2-dihydropyridine-3-carboxylic acid hydrochloride]
[1]; [8]
  MIC: 1 to 3.5 µg/mL
[2]
  MIC: 3.5 to 12.5 µg/mL
[3]
  MIC: 12.5 to 150 µg/mL
[4]
  MIC: 12.5 to 150 µg/mL
[5]
  MIC: 12.5 to 150 µg/mL
[6]
  MIC: 12.5 to 150 µg/mL

## CCc1cc(C(=O)O)c(=O)[nH]c1-c1ccc(N2CC3NCCOC3C2)cc1.Cl (stereo not shown) [Cpd 179, 5-ethyl-6-[4-(hexahydropyrrolo[3,4-b][1,4]oxazin-6(2H)-yl)phenyl]-2-oxo-1,2-dihydropyridine-3-carboxylic acid hydrochloride]
[1]; [8]
  MIC: 1 to 3.5 µg/mL
[2]
  MIC: 3.5 to 12.5 µg/mL
[3]
  MIC: 12.5 to 150 µg/mL
[4]
  MIC: 12.5 to 150 µg/mL
[5]
  MIC: 12.5 to 150 µg/mL
[6]
  MIC: 12.5 to 150 µg/mL

## CCc1cc(C(=O)O)c(=O)[nH]c1-c1ccc(N(C)CCN(C)C)cc1 [Cpd 161, 6-(4-{[2-(dimethylamino)ethyl](methyl)amino}phenyl)-5-ethyl-2-oxo-1,2-dihydropyridine-3-carboxylic acid]
[1]; [8]
  MIC: < 1 µg/mL
[2]
  MIC: 1 to 3.5 µg/mL (≈ 2.91 to 10.2 µM)
[3]
  MIC: 12.5 to 150 µg/mL (≈ 36.4 to 437 µM)
[4]
  MIC: 12.5 to 150 µg/mL (≈ 36.4 to 437 µM)
[5]
  MIC: 12.5 to 150 µg/mL (≈ 36.4 to 437 µM)
[6]
  MIC: 12.5 to 150 µg/mL (≈ 36.4 to 437 µM)

## CCc1c(-c2ccc(N3CCC(OC)CC3)cc2)[nH]c(=O)c(C(=O)O)c1O [Cpd 282, 5-ethyl-4-hydroxy-6-[4-(4-methoxypiperidin-1-yl)phenyl]-2-oxo-1,2-dihydropyridine-3-carboxylic acid]
[1]; [8]
  MIC: < 1 µg/mL
[2]
  MIC: 12.5 to 150 µg/mL (≈ 33.6 to 403 µM)
[3]
  MIC: 12.5 to 150 µg/mL (≈ 33.6 to 403 µM)
[4]
  MIC: 12.5 to 150 µg/mL (≈ 33.6 to 403 µM)

## CCc1cc(C(=O)O)c(=O)[nH]c1-c1ccc(N2CCC(O)CC2)cc1 [Cpd 222, 5-ethyl-6-[4-(4-hydroxypiperidin-1-yl)phenyl]-2-oxo-1,2-dihydropyridine-3-carboxylic acid]
[1]; [8]
  MIC: 1 to 3.5 µg/mL (≈ 2.92 to 10.2 µM)
[2]
  MIC: 12.5 to 150 µg/mL (≈ 36.5 to 438 µM)
[3]
  MIC: 12.5 to 150 µg/mL (≈ 36.5 to 438 µM)
[4]
  MIC: 12.5 to 150 µg/mL (≈ 36.5 to 438 µM)

## CCc1cc(C(=O)O)c(=O)[nH]c1-c1ccc(N2CCC(CNCc3cccnc3)C2)cc1 (stereo not shown) [Cpd 241, 5-ethyl-2-oxo-6-[4-(3-{[(pyridin-3-ylmethyl)amino]methyl}pyrrolidin-1-yl)phenyl]-1,2-dihydropyridine-3-carboxylic acid]
[1]; [8]
  MIC: < 1 µg/mL
[2]
  MIC: < 1 µg/mL
[3]
  MIC: 12.5 to 150 µg/mL (≈ 28.9 to 347 µM)
[4]
  MIC: 12.5 to 150 µg/mL (≈ 28.9 to 347 µM)

## CCc1cc(C(=O)O)c(=O)[nH]c1-c1ccc(N2CC[C@H](N=[N+]=[N-])C2)cc1 [Cpd 130, 6-{4-[(3S)-3-azidopyrrolidin-1-yl]phenyl}-5-ethyl-2-oxo-1,2-dihydropyridine-3-carboxylic acid]
[1]; [8]
  MIC: < 1 µg/mL
[2]
  MIC: 1 to 3.5 µg/mL (≈ 2.83 to 9.9 µM)
[3]
  MIC: 3.5 to 12.5 µg/mL (≈ 9.9 to 35.4 µM)
[4]
  MIC: 12.5 to 150 µg/mL (≈ 35.4 to 424 µM)
[5]
  MIC: 12.5 to 150 µg/mL (≈ 35.4 to 424 µM)
[6]
  MIC: 12.5 to 150 µg/mL (≈ 35.4 to 424 µM)

## CCc1cc(C(=O)O)c(=O)[nH]c1-c1ccc(N2C[C@H]3CC[C@@H](N(C)Cc4ccccc4)[C@H]3C2)cc1.Cl [Cpd 199, 6-{4-[(3aR,4R,6aS)-4-[benzyl(methyl)amino]hexahydrocyclopenta[c]pyrrol-2(1H)-yl]phenyl}-5-ethyl-2-oxo-1,2-dihydropyridine-3-carboxylic acid hydrochloride]
[1]; [8]
  MIC: < 1 µg/mL
[2]
  MIC: 3.5 to 12.5 µg/mL
[3]
  MIC: 3.5 to 12.5 µg/mL
[4]
  MIC: 12.5 to 150 µg/mL

## CC(C)c1cc(C(=O)O)c(=O)[nH]c1-c1ccc(N(C)CCN(C)C)cc1 [Cpd 165, 6-(4-{[2-(dimethylamino)ethyl](methyl)amino}phenyl)-2-oxo-5-(propan-2-yl)-1,2-dihydropyridine-3-carboxylic acid]
[1]; [8]
  MIC: 1 to 3.5 µg/mL (≈ 2.8 to 9.79 µM)
[2]
  MIC: 12.5 to 150 µg/mL (≈ 35 to 420 µM)
[3]
  MIC: 12.5 to 150 µg/mL (≈ 35 to 420 µM)
[4]
  MIC: 12.5 to 150 µg/mL (≈ 35 to 420 µM)

## CCc1c(-c2ccc(N3C[C@H]4CNC[C@H]4C3)cc2)[nH]c(=O)c(C(=O)O)c1O.Cl [Cpd 274, 5-ethyl-6-{4-[(3aR,6aS)-hexahydropyrrolo[3,4-c]pyrrol-2(1H)-yl]phenyl}-4-hydroxy-2-oxo-1,2-dihydropyridine-3-carboxylic acid hydrochloride]
[1]; [8]
  MIC: 1 to 3.5 µg/mL
[2]
  MIC: 12.5 to 150 µg/mL
[3]
  MIC: 12.5 to 150 µg/mL
[4]
  MIC: 12.5 to 150 µg/mL

## CCc1cc(C(=O)O)c(=O)[nH]c1-c1cc(CN2CCCC2)n(C)c1 [Cpd 348, 5-ethyl-6-(1-methyl-5-(pyrrolidin-1-ylmethyl)-1H-pyrrol-3-yl)-2-oxo-1,2-dihydropyridine-3-carboxylic acid]
[1]; [8]
  MIC: 3.5 to 12.5 µg/mL (≈ 10.6 to 37.9 µM)
[2]
  MIC: 12.5 to 150 µg/mL (≈ 37.9 to 455 µM)
[3]
  MIC: 12.5 to 150 µg/mL (≈ 37.9 to 455 µM)
[4]
  MIC: 12.5 to 150 µg/mL (≈ 37.9 to 455 µM)

## CCc1c(-c2ccc(N3CC4CCCN(C(=O)OC(C)(C)C)C4C3)cc2)[nH]c(=O)c(C(=O)O)c1O (stereo not shown) [Cpd 253, 6-{4-[1-(tert-butoxycarbonyl)octahydro-6H-pyrrolo[3,4-b]pyridin-6-yl]phenyl}-5-ethyl-4-hydroxy-2-oxo-1,2-dihydropyridine-3-carboxylic acid]
[1]; [8]
  MIC: < 1 µg/mL
[2]
  MIC: 12.5 to 150 µg/mL (≈ 25.8 to 310 µM)
[3]
  MIC: 3.5 to 12.5 µg/mL (≈ 7.24 to 25.8 µM)
[4]
  MIC: 12.5 to 150 µg/mL (≈ 25.8 to 310 µM)

## CCc1cc(C(=O)O)c(=O)[nH]c1-c1ccc(N2C[C@H]3CN(C)C[C@H]3C2)cc1.Cl [Cpd 208, 5-ethyl-6-{4-[(3aR,6aS)-5-methylhexahydropyrrolo[3,4-c]pyrrol-2(1H)-yl]phenyl}-2-oxo-1,2-dihydropyridine-3-carboxylic acid hydrochloride]
[1]; [8]
  MIC: 1 to 3.5 µg/mL
[2]
  MIC: 3.5 to 12.5 µg/mL
[3]
  MIC: 12.5 to 150 µg/mL
[4]
  MIC: 12.5 to 150 µg/mL
[5]
  MIC: 12.5 to 150 µg/mL
[6]
  MIC: 12.5 to 150 µg/mL
